Assay results taken from patent publication US20050148042A1, “Hybrid phosphoinositide phospholipids: compositions and uses” (priority 2002, published 2005).

Legend:
GST-PLC δ1-PH domain = target: T1, GST-PLC δ1-PH domain (Homo sapiens, UniProt P51178); assay: AlphaScreen competitive binding, biotinylated Pea-PI(4,5)P2 as probe lipid
T1 construct: made in house; host or cells: E. coli
T1 sequence (P51178 21-130 limits assumed): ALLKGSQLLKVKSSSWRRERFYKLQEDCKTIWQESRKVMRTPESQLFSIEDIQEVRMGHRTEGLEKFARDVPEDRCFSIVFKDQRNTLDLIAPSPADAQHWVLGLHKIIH
Description: In addition, competitive binding assays were conducted in which the GST-PLC δ1-PH protein was pre-incubated for 30 min with 10 nM to 10 fM of unlabeled diC4 Ptdlns(4,5)P2, Ptdlns(3,4,5)P3, or Pea-PI(4,5)P2 prior to addition of the other reagents, using biotinylated Pea-PI(4,5)P2 as the probe lipid.
These competitive binding experiments were similar to the binding experiment described above except that non biotinylated lipids are added to each reaction to compete with biotinylated Pea-PI(4,5)P2 for binding to PLC-δ 1-PH domain. For example, eight concentrations of PI(3,4,5)P3 diC4, PI(4,5)P2 diC4, and Pea-PI(4,5)P2 were added as competitors to separate wells in addition to 0.2 pmol/well PLC-δ-1-PH domain, 0.4 pmol/well of Pea-PI(4,5)P2, streptavidin donor, and anti-GST acceptor beads; and incubated as previously described. […] This 500 times better affinity of Pea-PI(4,5)P2 for PLC d1-PH domain compared to PI(3,4,5)P3 is fundamental to the development of a robust assay where one detects the specific PIPn product of a kinase or phosphatase in the presence of excess PIPn substrate.

anti-PIP3 antibody = assay: Antibody binding to lipids covalently coupled to Maleic-Anhydride activated 96-well plate; settings: 50 pmol per well, absorbance at 450 nm
Description: The ability of lipid recognition proteins to specifically recognize and bind to Pea-PIPns was tested by coupling Pea-PIPns (as well as amino PIPs with the same headgroups as controls) to polystyrene microtiter plates. Briefly, 50 pmol per well of amino PI(4,5)P2 (PIP2), amino PI(3,4,5)P3 (PIP3), Pea-PI(4,5)P2 (Pea-PIP2), and Pea-PI(3,4,5)P3 (Pea-PIP3) lipids in 100 μL PBS were coupled via their primary amine functional groups to triplicate wells of a Maleic-Anhydride activated 96-well plate (Pierce, Rockford, Ill.). Underivatized groups were reacted with 200 μL Tris-Glycine-SDS overnight before blocking with 200 μL 0.02% Ovalbumin in TBS. […] Specific binding was subsequently visualized by incubating with anti-mouse-HRP (horseradish peroxidase) secondary antibody (Sigma, St Louis, Mo.), washing as before, then adding tetramethylbenzadine (TMB) developing reagent (Sigma) and reading the absorbance at 450 nm in a plate reader.
Binding specificity of Pea-PIPs was further tested by coupling Pea-PIP2 and Pea-PIP3 (as well as amino PIPs with the same headgroups as controls) to polystyrene microtiter plates. […] Specific binding was subsequently visualized by incubating with anti-mouse-HRP secondary antibody (Sigma, St Louis, Mo.), washing as before, then adding Tetramethylbenzadine (TMB) developing reagent (Sigma) and reading the absorbance at 450 nm in a plate reader.

GST-PLC δ1-PH = target: T2, GST-PLC δ1-PH (Homo sapiens, UniProt P51178); assay: Protein-overlay binding to lipids spotted onto nitrocellulose; settings: 200 pmol to 6 pmol spotted onto nitrocellulose
T2 construct: made in house; host or cells: E. coli
T2 sequence (P51178 21-130 limits assumed): T1 sequence (P51178 21-130 limits assumed)
Description: In this Example, immobilized Pea-PIPns are readily and specifically recognized by lipid recognition proteins. According to this Example, six different quantities (from 200 pmol to 6 pmol) of Ptdlns(3,4)P2, Ptdlns(3,5)P2, Ptdlns(4,5)P2, Pea-PI(4,5)P2,Ptdlns(3,4,5)P3; Pea-PI(3,4,5P)3 PI and PE were spotted onto nitrocellulose, and binding of Glutathione S-Transferase (GST)-PLC δ1-PH and GST-General Receptor for Phosphoinositides (Grp1)-PH constructs was examined by a protein-overlay technique (described in Dowler, S., Kular, G., and Alessi, D. R. (2002) Sci STKE 2002, PL6) (recombinant GST tagged PLC δ1-PH and Grp1-PH domain proteins used in this Example were expressed in E. coli then purified using glutathione affinity resin (Amersham Biosciences, Piscataway, N.J.).

[1] = protein pre-incubated 30 min with 10 nM to 10 fM competitor

| selectivity for displacement of GST-PLC δ1-PH, relative to di-C4 Ptdlns(3,4,5)P3 (GST-PLC δ1-PH domain; [1]) | SMILES | IC50 (GST-PLC δ1-PH domain; 0.2 pmol/well PLC-δ-1-PH domain, 0.4 pmol/well probe lipid, read-out: IC50 value as competitor) [nM] | binding to the PH domain as unlabeled competitor (GST-PLC δ1-PH domain; [1]) | better affinity for PLC d1-PH domain compared to PI(3,4,5)P3 (GST-PLC δ1-PH domain; ratio of IC50 values) [times] | recognition by anti-PIP3 antibody (anti-PIP3 antibody) | recognition by GST-PLC δ1-PH (GST-PLC δ1-PH) |
| --- | --- | --- | --- | --- | --- | --- |
|  | CCCCCCCCCCCCCCCC(=O)O[C@H](COP(=O)(O)OCCN)[C@@H](COP(=O)(O)O[C@@H]1[C@H](O)[C@H](O)[C@@H](OP(=O)(O)O)[C@H](OP(=O)(O)O)[C@H]1O)OC(=O)CCCCCCCCCCCCCCC [Pea-PI(4,5)P2, 1-[(2R,3R)-4-(2-Aminoethoxyphosphoryloxy)-2,3-di-O-palmitoylbutoxyphosphoryloxy]-4,5-myo-bisphosphate] | 140 | further increase in binding | 500 | (but not Pea-PIP2) was recognized by the specific antibody | able to bind the correct protein at lower concentrations than the corresponding diC16 phosphoinositides |
| Over 100 fold | CCCC(=O)OCC(COP(=O)(O)OC1C(O)C(O)C(OP(=O)(O)O)C(OP(=O)(O)O)C1O)OC(=O)CCC (stereo not drawn) [di-C4 Ptdlns(4,5)P2, reference compound] |  |  |  |  |  |
